For 2 compounds, MIC results are on record in patent US5488051A, “Substituted 5,6-dihydro-5-oxo-1,4-dithiino-(2,3-d)-pyridazine-2,3-dicarbonitriles, compositions containing them and their use as antimicrobials” (The Dow Chemical Company, priority 1994, dated 1996).

Values after ≈ are worked out from the molar mass of the structure shown. Read-outs that look alike come from different tables or passages of the source. Where only a bound is given, the exact number is not on record here.

For assay [1], the system named is Bacillus subtilis (Bs). Briefly: MIC for Bacillus subtilis, nutrient agar. The format is cell-based, Bacillus subtilis ATCC 8473. Conditions: 30° C., 48 hours, read-out: Minimum Inhibitory Concentration (MIC), Bs. In a few lines: (§1)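 MIC taken as the lowest in-agar concentration without growth, using nutrient agar at pH 6.8 and pH 8.2 with compound at 0, 1.0, 2.5, 5, 10, 25, 50, 100, 250 or 500 ppm. Bacteria grown 24 h at 30° C were applied at 10^8 CFU/mL; plates were incubated 48 h at 30° C.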

Assay [2] concerns Escherichia coli (Ec). Briefly: MIC for Escherichia coli, nutrient agar. The format is cell-based, Escherichia coli ATCC 11229. Conditions: 30° C., 48 hours, read-out: Minimum Inhibitory Concentration (MIC), Ec. In a few lines: as §1
Assay [3] relates to Proteus vulgaris (Pv). The assay can be described thus: MIC for Proteus vulgaris, nutrient agar. The note with it: 30° C., 48 hours, read-out: Minimum Inhibitory Concentration (MIC), Pv. It counts as cell-based, Proteus vulgaris ATCC 881. In a few lines: as §1
Assay [4] has as its system Pseudomonas aeruginosa (Pa). Briefly: MIC for Pseudomonas aeruginosa, nutrient agar. It counts as cell-based, Pseudomonas aeruginosa ATCC 10145. Conditions: 48 hours, read-out: Minimum Inhibitory Concentration (MIC), Pa. In a few lines: as §1
Assay [5] deals with Salmonella choleraesuis. The assay can be described thus: MIC for Salmonella choleraesuis, nutrient agar. It counts as cell-based, Salmonella choleraesuis ATCC 10708. Conditions: Salmonella enterica, 30° C., 48 hours, read-out: Minimum Inhibitory Concentration (MIC), SC. In a few lines: as §1
Assay [6] relates to Staphylococcus aureus (Sa). The assay can be described thus: MIC for Staphylococcus aureus, nutrient agar. The note with it: 30° C., 48 hours, read-out: Minimum Inhibitory Concentration (MIC), Sa. The format is cell-based, Staphylococcus aureus ATCC 6538. In a few lines:
as §1

For assay [7], the system named is Aspergillus niger (An). Briefly: MIC for Aspergillus niger, malt yeast agar. The format is cell-based, Aspergillus niger ATCC 16404. The note with it: malt yeast agar; 30° C., 72 hours for fungi; read-out: Minimum Inhibitory Concentration (MIC), An. In a few lines: (§2)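 Agar dilution on malt yeast agar with compound (from 1% acetone/water solution) at final 0, 1.0, 2.5, 5, 10, 25, 50, 100, 250, 500 ppm. Plates inoculated by replicator with saline suspensions (1:9 diluted) of 7-day cultures; incubated at 30 °C, read at 48 h for yeast and 72 h for fungi.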

For assay [8], the system named is Candida albicans (Ca). Briefly: MIC for Candida albicans, malt yeast agar. Conditions: malt yeast agar; 30° C., 48 hours for yeast; read-out: Minimum Inhibitory Concentration (MIC), Ca. It counts as cell-based, Candida albicans ATCC 10231. In a few lines: as §2
For assay [9], the system named is Penicillium chrysogenum (Pc). Briefly: MIC for Penicillium chrysogenum, malt yeast agar. Conditions: malt yeast agar; 30° C., 72 hours for fungi; read-out: Minimum Inhibitory Concentration (MIC), PC. It counts as cell-based, Penicillium chrysogenum ATCC 9480. In a few lines: as §2
The subject of assay [10] is Trichoderma viride (Tv). The assay can be described thus: MIC for Trichoderma viride, malt yeast agar. The format is cell-based, Trichoderma viride ATCC 8678. Conditions: malt yeast agar; 30° C., 72 hours for fungi; read-out: Minimum Inhibitory Concentration (MIC), Tv. In a few lines:
as §2

The test system of assay [11] is Fusarium oxysporum (Fo). Briefly: MIC for Fusarium oxysporum, malt yeast agar. The format is cell-based, Fusarium oxysporum ATCC 48112. The note with it: malt yeast agar; 30° C., 72 hours for fungi; read-out: Minimum Inhibitory Concentration (MIC), Fo. In a few lines: as §2

Consider `Cc1ccc(-n2ncc3c(c2=O)SC(C#N)=C(C#N)S3)cc1` [B, 5,6-dihydro-6-(4-methylphenyl)-5-oxo-1,4-dithiino-(2,3-d)-pyridazine-2,3-dicarbonitrile], for which the MIC was less than 10 µg/mL in [1] (pH 6.8, nutrient agar); 25 µg/mL (≈ 77.1 µM) in assay [1] (pH 8.2, nutrient agar); 50 µg/mL (≈ 154 µM) in assay [2] (pH 6.8, nutrient agar); more than 500 µg/mL in [2] (pH 8.2, nutrient agar); 500 µg/mL (≈ 1540 µM) in assay [3] (pH 6.8, nutrient agar); more than 500 µg/mL in [3] (pH 8.2, nutrient agar). For the same compound, the MIC is more than 500 µg/mL in assay [4] (pH 6.8, 30° C.); more than 500 µg/mL in assay [4] (pH 8.2, 30° C.); more than 500 µg/mL in [5] (pH 6.8, nutrient agar); more than 500 µg/mL in assay [5] (pH 8.2, nutrient agar); less than 10 µg/mL in assay [6] (pH 6.8, nutrient agar); 25 µg/mL (≈ 77.1 µM) in [6] (pH 8.2, nutrient agar). For the same compound, the MIC in [7] was 25 µg/mL (≈ 77.1 µM); in assay [8] it was less than 10 µg/mL; in assay [9], 25 µg/mL (≈ 77.1 µM); in assay [10], 25 µg/mL (≈ 77.1 µM); in assay [11], 25 µg/mL (≈ 77.1 µM).
On to `N#CC1=C(C#N)Sc2c(cnn(-c3ccc(Br)cc3)c2=O)S1` [C, 5,6-dihydro-6-(4-bromophenyl)-5-oxo-1,4-dithiino-(2,3-d)-pyridazine-2,3-dicarbonitrile], for which the MIC in [1] (pH 6.8, nutrient agar) is less than 10 µg/mL; in [1] (pH 8.2, nutrient agar) it was 100 µg/mL (≈ 257 µM); in [2] (pH 6.8, nutrient agar), 100 µg/mL (≈ 257 µM); in assay [2] (pH 8.2, nutrient agar), more than 500 µg/mL; in assay [3] (pH 6.8, nutrient agar) it was 250 µg/mL (≈ 642 µM); in [3] (pH 8.2, nutrient agar) it was more than 500 µg/mL. In addition, the MIC in assay [4] (pH 6.8, 30° C.) is more than 500 µg/mL; in assay [4] (pH 8.2, 30° C.) it was more than 500 µg/mL; in [5] (pH 6.8, nutrient agar), 100 µg/mL (≈ 257 µM); in assay [5] (pH 8.2, nutrient agar), more than 500 µg/mL; in assay [6] (pH 6.8, nutrient agar) it was more than 500 µg/mL; in [6] (pH 8.2, nutrient agar) it was more than 500 µg/mL. In addition, the MIC in assay [7] was found to be 10 µg/mL (≈ 25.7 µM); in assay [8] it was 10 µg/mL (≈ 25.7 µM); in [9], 25 µg/mL (≈ 64.2 µM); in assay [10] it was 25 µg/mL (≈ 64.2 µM); in [11], 10 µg/mL (≈ 25.7 µM).
